Results published in US8188081B2, “Methods of treating inflammation using prokineticin 1 receptor antagonists” (Janssen Pharmaceutica, NV, priority 2005, dated 2012).
Values belong to the molecule of their own block, whether it stands above or below them.

Experiments:
PK1R [1] = target: T1, PK1R (Rattus norvegicus, UniProt Q8R416); settings: test compound 1 μM basolateral, 15 min; PK1 10 and 100 nM cumulative; FIGS. 9-11
Experimental: Methodology. The basic methodology for Using-type ion flux chambers used in these studies was the same as that described in detail above with the following modifications to the experimental protocol. […] The responses to two sequential EFS were used to guage tissue viability and comparability of the responses of individual tissues from each rat and between rats. Tissue conductance was measured at periodic intervals as changes in the amplitudes of brief short-circuit current responses evoked by application of 1 mV amplitude bi-polar pulses from a pulse generator using Ohm's Law. Three to four tissues from each rat were studied. The tissues from a given animal were grouped and assigned accordingly: one control tissue which received only vehicle followed by two consecutive doses of PK1 ligand added in a cumulative fashion to the basolateral surface of the tissue; the remaining two to three tissues from the same animal were assigned to be exposed to a given PK1 receptor antagonist (e.g., 3-4 tissues from 1 rat: Control, Antagonist1, Antagonist2, Antagonist3). Test compound was added to the basolateral tissue side reservoir at a final concentration of 1 μM and allowed a 15 minute incubation period prior to challenge with the PK1 peptide. At the end of this 15 minute exposure period, PK1 ligand at 10 and 100 nM was added in a cumulative fashion to each tissue to characterize the inhibitory effect of the test compound. At the conclusion of the experiment, EFS was re-applied to guage tissue viability and stability of responsiveness.

PK1R [2] = target: T1, PK1R; experiment: Inhibition of PK1-induced contraction of rat ileal longitudinal smooth muscle by PK1R antagonists (organ bath); set-up: from tissue; host or cells: isolated rat ileum (organ bath); settings: FIG. 19
Source text: The effects of PK1 on isolated segments of rodent gastrointestinal (GI) tissues have been studied ex vivo, using a “myobath” apparatus. This organ bath apparatus is used to measure the changes in contractile activity of GI smooth muscle following application of PK1, in the presence or absence of compounds that block PK1 receptor (PK1R)-mediated increases in intracellular free Ca^2+ in PK1R-transfected cells in vitro.
Methods. Rodents (mice, rats, and guinea pigs) were euthanized by […], and exsanguinated. Segments of GI tissues, including stomach, duodenum, jejunum, ileum, proximal colon and distal colon were resected from the animals and mounted, either as intact segments (i.e., 15 mm long cylinders of intestine) or flat strips (˜2.5 mm×15 mm) oriented along the longitudinal muscle axis. In some experiments flat strips were oriented along the circular muscle axis. […]
The tissues were lengthened to impart a resting load of between […] (depending on the preparation), and equilibrated under these conditions for 1 hr, changing the bathing solution to fresh KRB every 15 min. […] The response to PK1 under these conditions is compared to the response of the same tissue preparation to ACh and the contraction (or relaxation) calculated as a percent of the response to ACh. […]

[3] = target: T2, basolateral Na+-K+-2Cl- co-transporter (Rattus norvegicus, UniProt E9PTX9); settings: bumetanide 500 μM
T2 sequence (E9PTX9 1-1203): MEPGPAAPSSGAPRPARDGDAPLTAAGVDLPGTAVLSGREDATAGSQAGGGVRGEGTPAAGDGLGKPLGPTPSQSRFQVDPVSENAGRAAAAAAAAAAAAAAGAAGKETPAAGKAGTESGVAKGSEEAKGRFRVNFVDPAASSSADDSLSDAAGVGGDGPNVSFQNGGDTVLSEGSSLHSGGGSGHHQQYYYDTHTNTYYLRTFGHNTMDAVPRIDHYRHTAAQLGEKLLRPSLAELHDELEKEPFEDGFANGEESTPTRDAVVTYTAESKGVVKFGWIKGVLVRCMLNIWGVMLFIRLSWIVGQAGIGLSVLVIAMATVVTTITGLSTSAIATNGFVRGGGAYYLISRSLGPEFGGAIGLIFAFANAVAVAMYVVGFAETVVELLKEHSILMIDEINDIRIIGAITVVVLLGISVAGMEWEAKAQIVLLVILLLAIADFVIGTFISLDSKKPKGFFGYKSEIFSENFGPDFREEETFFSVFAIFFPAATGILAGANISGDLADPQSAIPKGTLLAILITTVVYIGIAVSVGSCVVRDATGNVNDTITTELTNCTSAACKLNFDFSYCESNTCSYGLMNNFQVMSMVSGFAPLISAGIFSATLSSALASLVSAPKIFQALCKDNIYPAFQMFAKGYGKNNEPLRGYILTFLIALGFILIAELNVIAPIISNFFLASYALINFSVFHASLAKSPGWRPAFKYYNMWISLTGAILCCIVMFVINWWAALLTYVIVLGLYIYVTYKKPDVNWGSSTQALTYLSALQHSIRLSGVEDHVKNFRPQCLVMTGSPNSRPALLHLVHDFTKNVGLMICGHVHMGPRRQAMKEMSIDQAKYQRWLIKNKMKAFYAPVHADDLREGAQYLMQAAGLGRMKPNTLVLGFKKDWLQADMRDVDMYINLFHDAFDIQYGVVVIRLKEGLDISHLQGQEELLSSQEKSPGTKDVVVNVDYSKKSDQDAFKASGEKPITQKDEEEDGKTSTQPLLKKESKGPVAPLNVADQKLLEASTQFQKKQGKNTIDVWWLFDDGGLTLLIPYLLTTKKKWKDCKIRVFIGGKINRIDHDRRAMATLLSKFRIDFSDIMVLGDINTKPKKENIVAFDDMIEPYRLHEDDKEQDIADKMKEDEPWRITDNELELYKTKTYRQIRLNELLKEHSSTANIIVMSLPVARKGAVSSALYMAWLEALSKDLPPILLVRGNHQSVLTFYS
Source text: Methodology. The basic methodology for Using-type ion flux chambers used in these studies was the same as that described in detail above with the following modifications to the experimental protocol. To determine the mechanism of action of the pro-secretory action of PK1 on the epithelium, three separate approaches were utilized to abolish electrogenic chloride ion or bicarbonate ion transport across the epithelium. […] The second approach involved replacement of all chloride ions in the physiological buffer solution used to maintain living tissues in the Using chambers, thus substituting a chloride-free KRB solution by an equimolar substitution of isethionate and acetate salts for the chloride salts listed in the standard KRB recipe above. The third approach involved replacement of all bicarbonate ions in the physiological buffer solution, thus substituting a bicarbonate-free KRB solution by an equimolar substitution of Piperazine-N,N′-bis(2-ethanesulfonic acid) (PIPES) for the bicarbonate salt, and addition of 1 mM acetazolamide, a blocker of intracellular carbonic anhydrase, to prevent bicarbonate production by the enterocyte.

rat small intestine [4] = experiment: Enteropooling and accumulation of fluid in rat small intestine in vivo; settings: 30 min
Experimental: Methodology. Experiments were carried out to gravimetrically measure the in vivo pro-secretory effect of PK1 peptide in the rat small bowel. The effect of PK1 peptide on stimulation of enteropooling and accumulation of fluid in the gut of intact rats was evaluated using two different routes of administration. Non-fasted rats were randomly assigned to two experimental groups (n=10 per group) in two separate experiments. In the first experiment, each rat was given an oral bolus (1.5 ml) of 6% carmine dye in 0.5% methylcellulose wt/vol containing a dose of PK1 peptide at 100 μg/kg or buffer vehicle. (See FIG. 12). […] (See FIG. 13). Thirty minutes later, rats were rapidly euthanized by cervical dislocation after inhalation anesthesia with 100% carbon dioxide and the entire small intestine was excised from the pylorus to the ileocecal junction. The total small bowel length was measured and then divided equally into thirds using 4-0 silk suture loops to ligate, isolate, and separate each segment to prevent leakage of intraluminal contents. […] Net fluid content weight was calculated as the difference between intact and empty intestinal segment weights to the nearest milligram and normalized to segment wet tissue weight in grams.

rat ileum = experiment: Contractility of isolated rat GI segments ex vivo (myobath organ bath), response to PK1
[5] = tested on: ileum mucosal tissues from PK1 receptor knock-out mice; experiment: PK1-evoked Isc in ileum mucosal tissues from PK1 receptor knock-out mice; settings: exogenous PK1 peptide; FIG. 5
rat small intestine [6] = experiment: Small intestinal transit of an oral carmine test meal in rats in vivo; settings: oral PK1 100 μg/kg; 30 min; FIG. 14
Experimental: Methodology. Small intestinal transit. Rats received a bolus of 1.5 ml total volume that contained a 6% solution of carmine dye in 0.5% methyl cellulose (wt/vol) together with a dose of either PK1 (100 μg/kg) or vehicle by oral feeding tube. After 30 min, the rats were rapidly euthanized by cervical dislocation after inhalation anesthesia with 100% carbon dioxide. The entire small intestine of each rat was carefully resected starting at the ileal-cecal junction first and working back toward the pylorus of the stomach until the entire small intestine had been removed intact. The excised small bowel was arranged lengthwise along a metric straight-edge, and the length of the entire small intestine was measured in centimeters. The leading edge of the carmine dye front was visualized and the distance traveled by the carmine was also measured and calculated as a percentage of the total excised length of the small intestine. Transit was expressed as the percentage of the total intestinal length traveled by the carmine dye in 30 minutes.

T1 sequence (Q8R416 whole entry): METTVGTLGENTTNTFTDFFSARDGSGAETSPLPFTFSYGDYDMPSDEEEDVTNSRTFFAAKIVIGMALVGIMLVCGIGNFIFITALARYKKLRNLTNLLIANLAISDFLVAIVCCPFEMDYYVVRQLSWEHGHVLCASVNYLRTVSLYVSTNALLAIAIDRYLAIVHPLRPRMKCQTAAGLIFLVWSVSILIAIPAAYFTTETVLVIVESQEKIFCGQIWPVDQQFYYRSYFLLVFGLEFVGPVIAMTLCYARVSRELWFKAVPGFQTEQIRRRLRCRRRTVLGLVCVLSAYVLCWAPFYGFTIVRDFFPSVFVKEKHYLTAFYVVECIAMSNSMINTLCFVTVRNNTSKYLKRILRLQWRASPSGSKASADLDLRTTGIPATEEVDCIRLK

Molecule: COc1ccc(Cn2c(NCCNC(=N)NC(C)C)nc(=O)n(Cc3ccc(Cl)c(Cl)c3)c2=O)cc1 [JNJ 28480894]
suppression of the PK1 evoked increase in Isc (PK1R [1]): suppressed

Molecule: [H]/N=C(\N)NCCNc1nc(=O)n(Cc2ccc(F)cc2)c(=O)n1Cc1ccc(OC)cc1 [JNJ 27624675]
suppression of the PK1 evoked increase in Isc (PK1R [1]): suppressed

B1: PK1: recombinant human Prokineticin 1 expressed in HEK 293 cells, FLAG tag cleaved; mixture of full-length and four C-terminal residue truncated product (protein, UniProt P58294 20-105, looked up)
Prokineticin-1: AVITGACERDVQCGAGTCCAISLWLRGLRMCTPLGREGEECHPGSHKVPFFRKRKHHTCPCLPNLLCSRFPDGRYRCSMDLKNINF
modifications: mixture with C-terminal 4-residue truncated form
notes: recombinant human Prokineticin 1 expressed in HEK 293 cells, FLAG tag cleaved; mixture of full-length and four C-terminal residue truncated product
fluid accumulation in rat small bowel in vivo (rat small intestine [4]; intraperitoneal PK1 100 μg/kg, FIG. 13): stimulates fluid accumulation
fluid accumulation in rat small bowel in vivo (rat small intestine [4]; oral PK1 100 μg/kg, FIG. 12): stimulates fluid accumulation
response of intestinal tissues (mid-duodenum, jejunum, distal ileum) (rat ileum; PK1 100 nM): evoked longitudinal contractions
response of proximal and distal colon (rat ileum; PK1 100 nM): evoked longitudinal relaxations
time to peak contraction, early phase (rat ileum; isolated rat ileum): 6.4 min
time to peak contraction, late phase (rat ileum; isolated rat ileum): 53.8 min
change in Isc in tissues from PK1 receptor knock-out mice compared to wild-type littermates [5]: did not elicit a significant change in Isc
small intestinal transit of a carmine test meal compared to vehicle (rat small intestine [6]): significantly accelerated

Second part, led by results:

suppression of the PK1 evoked increase in Isc (PK1R [1]): suppressed
Molecule: COc1ccc(Cn2c(NCCn3c(N)nc4ccccc43)nc(=O)n(Cc3ccc(F)cc3)c2=O)cc1 [JNJ 28845557]
early versus late response inhibition (PK1R [2]): more potent and more effective at inhibition of the early response
effect on the PK1-induced contraction of rat ileal longitudinal smooth muscle (PK1R [2]; early and late components): concentration-dependent inhibitory effect

effect on baseline G [3]: did not significantly change
change in baseline Isc after addition to the serosal bathing solution ([3]; n=5, not significantly different from DMSO vehicle): −7.1+/−8.6 μA/cm^2
attenuation of the PK1-evoked increase in Isc ([3]; serosal): > 90%
Molecule: CCCCNc1cc(C(=O)O)cc(S(N)(=O)=O)c1Oc1ccccc1 [bumetanide, Bumetanide]
